In patent US8648195B2, “Stabilized crystal of 2-ethyl-3,7-dimethyl-6-(4-(trifluoromethoxy)phenoxy)quinoline-4-yl methyl carbonate, process for producing the crystal, and agricultural chemical composition comprising the crystal” (priority 2010, dated 2014):

Legend:
[1] = Storage test of aqueous suspension formulations (54° C., 2 weeks): particle size and properties; type: physicochemical; conditions: conclusion from storage test
Experimental: The aqueous suspension formulations of Example 2 and Comparative Example 1 were stored at 54° C. for 2 weeks, and a change in quality between before and after the storage was observed. The size of crystals before and after the storage test was measured with a laser diffraction particle size distribution measuring apparatus and under an optical microscope. [Measurement with Laser Diffraction Particle Size Distribution Measuring Apparatus] Apparatus used: Laser diffraction particle size distribution measuring apparatus SALD-2200 manufactured by Shimadzu Corp The floable formulation diluted with water after the storage test was used for the measurement of particle size with the above measuring apparatus. The A crystal form after the storage could not be suspended in water, and, thus, instead of the suspension, before use in test, was exposed to ultrasonic waves until coarse particle nuclei disappeared. [Measurement Under Optical Microscope] Apparatus used: Digital microscope VHX-200 manufactured by Keyence Corp. Images of the water-diluted floable formulations after the storage test were taken with the apparatus (magnification: 1500 times). The major axes of crystals in the images were measured, and the average was calculated. […]

[2] = system: Lepidoptera, Hemiptera, Coleoptera, Acari, Hymenoptera, Orthoptera, Diptera, and Order Thysanoptera; conditions: patent documents 5 and 6; cited from earlier work

Physicochemical and storage stability of the crystal form [1]	SMILES	Insecticidal activity [2]
high storage stability	CCc1nc2cc(C)c(Oc3ccc(OC(F)(F)F)cc3)cc2c(OC(=O)OC)c1C [Example 1, 2-ethyl-3,7-dimethyl-6-(4-(trifluoromethoxy)phenoxy)quinoline-4-yl methyl carbonate]	
	CCc1nc2cc(C)c(Oc3ccc(OC(F)(F)F)cc3)cc2c(OC(=O)OC)c1C [Compound I, 2-Ethyl-3,7-dimethyl-6-(4-(trifluoromethoxy)phenoxy)-quinoline-4-yl methyl carbonate]	high insecticidal activity
